Measured values: US20060089395A1, “Nf-kb activation inhibitors” (priority 2002, published 2006)
Like-named read-outs stand apart in the source and are kept apart here.

Tested on: NF-κ B
Test: Inhibitory activity of NF-κ B activation, luciferase reporter assay in HepG2 under TNF-α stimulation
Type: cell-based, human
Description: Using a transfection reagent(Effectene; QIAGEN), the human hepatoma cell strain HepG2 was transfected with a plasmid(pNF κ B-Luc Reporter Plasmid; […]) which is integrated with an oligonucleotide having five tandem copies of NF-κ B binding sequences([…]) on a upstream region of firefly luciferase gene(Luc) according to the QIAGEN's protocol, and the cells were incubated for 6 to 24 hours. After the addition of TNF-α (40 ng/ml) in the presence or absence of a test compound, the cells were incubated for 4 hours, and intracellular luciferase activity was measured by using PicaGene LT (TOYO INK MFG Co., Ltd.) and a chemical luminescence measurement apparatus ([…]luor Plus; TECAN). The inhibitory ratio was measured as a ratio relative to the value of a luciferase activity in the absence of the test compound.

[1] = Homo sapiens, 1 μg/mL, HepG2, TNF-α (40 ng/ml), 4 hours, read-out: Inhibitory Ratio of NF-κ B Activation(%) Drug Concentration 1 μg/mL
[2] = 1 μg/mL, HepG2, TNF-α (40 ng/ml), 4 hours
[3] = 10 μg/mL, HepG2, TNF-α (40 ng/ml), 4 hours
[4] = Homo sapiens, 10 μg/mL, HepG2, TNF-α (40 ng/ml), 4 hours, read-out: Inhibitory Ratio of NF-κ B Activation(%) Drug Concentration 10 μg/mL

SMILES	Inhibitory Ratio of NF-κ B Activation(%) Drug Concentration 1 μg/mL [2] [%]	Inhibitory Ratio of NF-κ B Activation(%) Drug Concentration 10 μg/mL [3] [%]	other results
O=C(Nc1nc(-c2ccc(Cl)cc2Cl)cs1)c1cc(Cl)ccc1O [Compound No. 255, 5-Chloro-2-hydroxy-N-[4-(2,4-dichlorophenyl)thiazol-2-yl]benzamide]			inhibition at 1 µg/mL [1]: > 99.9%
O=C(Nc1cc(F)cc(C(F)(F)F)c1)c1cc(Cl)ccc1O [Compound No. 85]	94.7	98.9	
O=C(Nc1cccc(C(F)(F)F)c1)c1cc(Br)ccc1O [drawing 560, reference compound]			inhibition at 0.1 µg/mL (Homo sapiens, HepG2, 4 h, 0.1 μg/ml, comparison table, reporter assay, read-out: Inhibitory Ratio of NF-κB Activation (%) 0.1 μg/ml): -20.9%; inhibition at 1 µg/mL (Homo sapiens, HepG2, 4 h, 1 μg/ml, comparison table, reporter assay, read-out: Inhibitory Ratio of NF-κB Activation (%) 1 μg/ml): 88%; inhibition at 10 µg/mL (Homo sapiens, HepG2, 4 h, 10 μg/ml, comparison table, reporter assay, read-out: Inhibitory Ratio of NF-κB Activation (%) 10 μg/ml): 89.6%
COc1cc(NC(=O)c2cc(Br)ccc2O)cc(OC)c1 [Compound No. 143]	38.3	96.8	
O=C(Nc1cc(C(F)(F)F)cc(C(F)(F)F)c1)c1cc(C(=O)N2CCCCC2)ccc1O [Compound No. 39, N-[3,5-Bis(trifluoromethyl)phenyl]-2-hydroxy-5-(piperidine-1-carbonyl)benzamide]			inhibition at 1 µg/mL [1]: 23.7%; inhibition at 10 µg/mL [4]: 82.2%
CN(C)S(=O)(=O)c1ccc(O)c(C(=O)Nc2cc(C(F)(F)F)cc(C(F)(F)F)c2)c1 [Compound No. 41, N-[3,5-Bis(trifluoromethyl)phenyl]-5-dimethylsufamoyl-2-hydroxybenzamide]	42.2	95.9	
O=C(Nc1cc(-c2ccccc2)[nH]n1)c1cc(Br)ccc1O [Compound No. 233]	26.6	84.7	
CCOC(=O)c1c(NC(=O)c2cc(Cl)ccc2O)sc2c1CCCC2 [Compound No. 232]	88.2	85.4	
COc1ccc(-c2ccccc2)cc1NC(=O)c1cc(Cl)ccc1O [Compound No. 141]	82.4	97.9	
Cc1nc(-c2ccc(O)c(C(=O)Nc3cc(C(F)(F)F)cc(C(F)(F)F)c3)c2)cs1 [Compound No. 30, N-[3,5-Bis(trifluoromethyl)phenyl]-2-hydroxy-5-(2-methylthiazol-4-yl)benzamide]			inhibition at 1 µg/mL [1]: 82.1%; inhibition at 10 µg/mL [4]: 95.3%
Cc1ccc(Oc2ccc(C(F)(F)F)cc2NC(=O)c2cc(Cl)ccc2O)cc1 [Compound No. 117]	92.8	92.6	
N#Cc1ccc(Oc2ccc(C(F)(F)F)cc2NC(=O)c2cc(Cl)ccc2O)cc1 [Compound No. 252]	93.9	96.3	
O=C(Nc1cc(C(F)(F)F)cc(C(F)(F)F)c1)c1cc(Cl)cc(Cl)c1O [Compound No. 56]	89.4	95.1	
O=C(Nc1cc(C(F)(F)F)cc(C(F)(F)F)c1)c1cc(I)ccc1O [Compound No. 7, N-[3,5-bis(trifluoromethyl)phenyl]-2-hydroxy-5-iodobenzamide]			inhibition at 1 µg/mL [1]: 86.6%; inhibition at 10 µg/mL [4]: 85.4%
O=C(Nc1nc(-c2ccc(Cl)c(Cl)c2)cs1)c1cc(Cl)ccc1O [Compound No. 260, 5-Chloro-2-hydroxy-N-[4-(3,4-dichlorophenyl)thiazol-2-yl]benzamide]			inhibition at 1 µg/mL [1]: > 99.9%
O=C(Nc1nc(-c2ccccc2)cs1)c1cc(Br)ccc1O [Compound No. 208]		78.8	
COc1cccc(C(=O)Nc2cc(C(F)(F)F)cc(C(F)(F)F)c2)c1O [Compound No. 59]	41.9	94.7	
O=C(Nc1cc(C(F)(F)F)cc(C(F)(F)F)c1)c1cc(F)ccc1O [compound 3]	81.5	94.3	
CC(=O)Oc1ccc(Cl)cc1C(=O)Nc1cc(C(F)(F)F)ccc1C(F)(F)F [Compound No. 82]	94.0	96.8	
O=C(Nc1cc(C(F)(F)F)ccc1N1CCCC1)c1cc(Br)ccc1O [Compound No. 97]	95.8	97.8	
O=C(Nc1nc(-c2c(F)c(F)c(F)c(F)c2F)cs1)c1cc(Cl)ccc1O [Compound No. 266, 5-Chloro-2-hydroxy-N-[4-(2,3,4,5,6-pentafluorophenyl)thiazol-2-yl]benzamide]			inhibition at 1 µg/mL [1]: > 99.9%
